In assay [1] the target is D(2) dopamine receptor (Homo sapiens) (UniProt P14416).
Assay [2] is filed under the species Mus musculus. To be noted: C57.

The structures appear in SMILES notation. The source made the active and inactive calls. The calls are words filed in the database; no cut-off is given here.

Chain of D(2) dopamine receptor (Homo sapiens) (P14416 whole entry): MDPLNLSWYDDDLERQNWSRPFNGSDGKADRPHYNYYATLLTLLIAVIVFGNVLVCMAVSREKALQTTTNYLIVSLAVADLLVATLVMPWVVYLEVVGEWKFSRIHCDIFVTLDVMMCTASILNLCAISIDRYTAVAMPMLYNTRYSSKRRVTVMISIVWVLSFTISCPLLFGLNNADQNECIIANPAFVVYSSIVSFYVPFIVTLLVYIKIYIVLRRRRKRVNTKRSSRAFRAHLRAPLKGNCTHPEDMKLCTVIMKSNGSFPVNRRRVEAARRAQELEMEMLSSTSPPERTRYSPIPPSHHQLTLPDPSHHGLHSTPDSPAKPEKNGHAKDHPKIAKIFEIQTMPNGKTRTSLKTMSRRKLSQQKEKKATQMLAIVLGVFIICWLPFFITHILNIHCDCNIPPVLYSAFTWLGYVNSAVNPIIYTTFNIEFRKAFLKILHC

In the case of `CN(C)C(=O)Nc1ccc(CCN2CCc3ccccc3C2)cc1`, the pEC50 entry in assay [1] was “inactive”.

`CN(C)C(=O)N[C@H]1CC[C@H](CCN2CCc3cccc(Cl)c3C2)CC1`: the Occ entry in assay [2] is “Dose-dependent effect”.

With `CN(C)C(=O)N[C@H]1CC[C@H](CN2CCc3ccccc3C2)CC1`, the pEC50 result in assay [1] is “inactive”.

`CN(C)C(=O)NCCCCCN1CCc2ccccc2C1`: in assay [1], the pEC50 result was “inactive”.
